We go through 2 sequences from patent publication US11116817B2, “Antimicrobial agents and compositions comprising the same” (THE CURATORS OF THE UNIVERSITY OF MISSOURI, priority 2017, dated 2021).

Where two headings read alike, the source gives them in different places. Positions of bridges follow the written chain, without caps; N, C: chain ends. No end group written: not given here.

In one data set the test system is JAWSII cells. The experiment in a line: Cell cytotoxicity assay (MTT). The class given is cell-based, mouse. To be noted: 4, 16, 64, 256 μg/ml for 4, 12, 24, and 48 hour. The procedure:
The Cell Cytotoxicity Assay includes the following procedures. Mouse immature dendritic cell line, JAWSII (ATCC CRL-11904™), was cultured in Alpha minimum essential medium with ribonucleosides, deoxyribonucleosides, 4 mM L-glutamine, 1 mM sodium pyruvate, and 5 ng/ml murine Granulocyte macrophage colony-stimulating factor (GM-CSF) then supplemented with 20% FBS, 100 U/ml penicillin, and 100 μg/ml streptomycin at 37° C. in humidified air with 5% CO2. CCR-2 transfected CHO-K1 cells were cultured in RPMI-1640 supplemented with 10% FBS, 2 mM L-glutamine, 100 units/ml penicillin and streptomycin, and 500 μg/ml G418 at 37° C. in humidified air with 5% CO2. The cytotoxicity of CAMPs (SEQ ID NOs: 1, 2, 3, and 4) to JASWII and CHO-K1 cells was determined using MTT (3-(4,5-dimethylthiazol-2-yl)-2,5-diphenyltetrazolium bromide, Thermo Fisher Scientific) cell proliferation assay. Cells (5×10^3 cells/well) in 96-well microtiter plates were treated with peptides at 64, 128, 256, and 512 μg/ml for 4, 12, 24, and 48 hours at 37° C. After treatment, 20 μl of 12 mM MTT solution was added to each well and the plate was incubated for 4 hours. […] The plates were read using a spectrophotometer at 540 nm. The viability of treated cells was expressed as the percentage of viability relative to the untreated control. […]

The test system of another data set is CHO-K1 cells. The experiment in a line: Cell cytotoxicity assay (MTT). The class given is cell-based, hamster. To be noted: 4, 16, 64, 256 μg/ml for 4, 12, 24, and 48 hour. The procedure: The Cell Cytotoxicity Assay includes the following procedures. Mouse immature dendritic cell line, JAWSII (ATCC CRL-11904™), was cultured in Alpha minimum essential medium with ribonucleosides, deoxyribonucleosides, 4 mM L-glutamine, 1 mM sodium pyruvate, and 5 ng/ml murine Granulocyte macrophage colony-stimulating factor (GM-CSF) then supplemented with 20% FBS, 100 U/ml penicillin, and 100 μg/ml streptomycin at 37° C. in humidified air with 5% CO2. CCR-2 transfected CHO-K1 cells were cultured in RPMI-1640 supplemented with 10% FBS, 2 mM L-glutamine, 100 units/ml penicillin and streptomycin, and 500 μg/ml G418 at 37° C. in humidified air with 5% CO2. The cytotoxicity of CAMPs (SEQ ID NOs: 1, 2, 3, and 4) to JASWII and CHO-K1 cells was determined using MTT (3-(4,5-dimethylthiazol-2-yl)-2,5-diphenyltetrazolium bromide, Thermo Fisher Scientific) cell proliferation assay. Cells (5×10^3 cells/well) in 96-well microtiter plates were treated with peptides at 64, 128, 256, and 512 μg/ml for 4, 12, 24, and 48 hours at 37° C. After treatment, 20 μl of 12 mM MTT solution was added to each well and the plate was incubated for 4 hours. The medium in each well was replaced with 100 μl of dimethyl sulfoxide (DMSO, Sigma-Aldrich) to dissolve MTT crystals. The plates were read using a spectrophotometer at 540 nm. The viability of treated cells was expressed as the percentage of viability relative to the untreated control. The experiment was performed in triplicate.
(§1) Chicken macrophage cell lines MQ-NCSU and HD11 were maintained in RPMI-1640 media supplemented with 10% fetal bovine serum (FBS), 2% chicken serum, 100 U/ml penicillin and 100 μg/ml streptomycin (Sigma-Aldrich) at 37° C. in humidified air with 5% CO2. CHO-K1 cells were cultured in the same media without 2% chicken serum. For CCR2-transfected CHO-K1 cells, medium was supplemented with 500 μg/ml G418 was added (Sigma-Aldrich). Murine immature dendritic cell line JAWSII (ATCC CRL-11904™) was cultured in Alpha minimum essential medium containing 4 mM L-glutamine, 1 mM sodium pyruvate, 5 ng/ml murine Granulocyte macrophage colony-stimulating factor (GM-CSF), 20% FBS, 100 U/ml penicillin and 100 μg/ml streptomycin at 37° C. in humidified air with 5% CO2. The cell cytotoxicity was determined using the MTT (3-(4,5-dimethylthiazol-2-yl)-2,5-diphenyltetrazolium bromide cell proliferation assay according to the manufacturer's instruction (Thermo Fisher Scientific). Briefly, cells (5×10^3 cells/well) were seeded in 96-well tissue culture plates, incubated overnight and treated with the analogues at concentrations of 4, 16, 64 and 256 μg/ml for 4, 12, 24 and 48 hours at 37° C. After treatment, […] 12 mM MTT solution was added to each well. The plate was incubated for 4 hours and read at 540 nm. Viability was expressed as percentage of viable cells relative to the untreated control. The experiments were performed in triplicate.

Data set [1] relates to chicken macrophage cell line HD11. The experiment in a line: Cell cytotoxicity assay (MTT). To be noted: 4, 16, 64, 256 μg/ml for 4, 12, 24, and 48 hour. The class given is cell-based. The procedure:
as §1, with “The experiments were performed in triplicate.” left out

The test system of data set [2] is chicken macrophage cell line MQ-NCSU. Nature of the data set: Cell cytotoxicity assay (MTT). To be noted: 4, 16, 64, 256 μg/ml for 4, 12, 24, and 48 hour. The class given is cell-based. Here is the method: as §1, with “The experiments were performed in triplicate.” left out
The test system of data set [3] is S. aureus (ATCC 29213). The class given is cell-based. Here is the method:
(§2) The minimum inhibitory concentrations (MIC) of AvBDs (SEQ ID NOs: 5, 6, 7, 8, 9, 10, 11, 12, and 13) were determined under low salt and standard conditions according to the guidelines of the Clinical and Laboratory Standards Institute (CLSI). […] An equal volume […] of bacterial suspension was added to each well of the plate. The final bacterial concentration in the wells was 5×10^5 CFU/ml. […] To complement MIC-1s assays, the minimum bactericidal concentrations (MBC) were evaluated by sub-culturing the contents of the first two clear wells obtained in the MIC-1s assay onto LB agar plates. All assays were conducted in triplicate. The lowest peptide concentration inhibiting about, at least, or more than 99% of bacterial growth was defined as MBC-1s. The analogues were regarded as bactericidal when the MBC was determined to be no more than four times the MIC.

In a further data set the test system is E. coli (ATCC 25922). The class given is cell-based. The procedure:
as §2

Data set [4] relates to S. Typhimurium (ATCC 14028). The class given is cell-based. The procedure:
as §2

The subject of data set [5] is P. aeruginosa (ATCC 27853). The class given is cell-based. Here is the method:
as §2

Data set [6] has as its system methicillin-resistant S. pseudintermedius (MRSP). The class given is cell-based. The procedure:
(§3) The minimum inhibitory concentrations (MICs) of CAMPs (SEQ ID NOs: 1, 2, 3, and 4) were determined according to the guidelines of the Clinical and Laboratory Standards Institute (CLSI). The Muller Hinton (MH) II broth used in MIC assay was supplemented with 20-25 mg/L of calcium and 10-12.5 mg/L of magnesium. In brief, peptides were two-fold serially diluted (2 to 256 μg/ml) in a 96-well microtiter plate (Nunc™, Thermo Fisher Scientific) and an equal volume (μl) of bacterial suspension was added to each well of the plate. The final bacterial concentration in the wells was 5×10^5 CFU/ml. […] All assays were conducted in triplicate.

In a further data set the test system is P. aeruginosa. The class given is cell-based. The procedure:
as §3

The test system of data set [7] is S. aureus (ATCC 29213). The class given is cell-based. Here is the method: as §3
This is another data set of the same source.

Data set [8] relates to Gram-positive bacteria (S. aureus and MRSP strains). Nature of the data set: MIC assay, Example One, pooled over Gram-positive strains. The class given is cell-based, S. pseudintermedius. To be noted: mean over the Gram-positive strains of Table 2. The procedure: as §3
The Hemolytic Assay includes the following procedures. […] The supernatant was transferred to a 96-well flat-bottomed polystyrene plate (Thermo Fisher Scientific), and the amount of hemoglobin released into the supernatant was determined by measuring the absorbance with a spectrophotometer at 540 nm. Hemolytic activity was expressed as the percentage of hemolysis and calculated using the following equation: hemolysis (%)=(As−A0)/(A100−A0)×100, where As is the absorbance of the sample, A100 is the absorbance of completely lysed RBCs in 0.2% Triton X-100, and A0 is the absorbance in the complete absence of hemolysis (PBS treatment). […] Therapeutic index (T.I.) was calculated according to a previously published formula: T.I.=MHC/MICGM. […]

Where [9] appears, read: standard conditions, CLSI guidelines.

Take “GPHSCNHQRGLCRVGNCNPGYYLAKYCFSPVILCCKPLSPTPTKT (disulfide 5-34, 12-27, 17-35) [AvBD-12/6]”: the “effect on cell viability” value (with JAWSII cells; with CHO-K1 cells; in data set [1]; in data set [2]) was “did not appear to have any effect on cell viability” throughout. Moreover, the MBC-Is is 256 µg/mL in the data set with S. aureus (ATCC 29213) [3] (low salt condition (5 mM NaCl)), 32 µg/mL with E. coli (ATCC 25922) (low salt condition (5 mM NaCl)) and 64 µg/mL in data set [4] (low salt condition (5 mM NaCl)). Besides, the MIC-Is with S. aureus (ATCC 29213) [3] (low salt condition (5 mM NaCl)) was determined as 256 µg/mL; with E. coli (ATCC 25922) (low salt condition (5 mM NaCl)), 8 µg/mL; in data set [4] (low salt condition (5 mM NaCl)) it was 16 µg/mL; in data set [5] (low salt condition (5 mM NaCl)) it was 64 µg/mL. The MIC is 256 µg/mL in the data set on S. aureus (ATCC 29213) [3] (setting [9]), 256 µg/mL in the data set on E. coli (ATCC 25922) (setting [9]), over 256 µg/mL in [4] (setting [9]) and over 256 µg/mL in data set [5] (setting [9]).

“SPIHACRYQRGVCIPGPCRWPYYRVGSCGSGLKSCCVRNRWA (disulfide 6-35, 13-28, 18-36) [AvBD-6]”: the MIC in data set [6] (S. pseudintermedius (13164006)), in data set [6] (S. pseudintermedius (13193006)), in data set [6] (S. pseudintermedius (13207007)), in [6] (S. pseudintermedius (13228005)), in data set [6] (S. pseudintermedius (13267017)) and in data set [6] (S. pseudintermedius (13269013)) was over 256 µg/mL throughout. Further, the MIC is over 256 µg/mL against P. aeruginosa (24 h) and 256 µg/mL against S. aureus (ATCC 29213) [7]. Also, the “MICAverage G−” value in the data set on P. aeruginosa (mean over the Gram-negative (P. aeruginosa) strains of Table 2) was over 256 µg/mL. Also, the “MICAverage G+” value in data set [8] is at least 256 µg/mL. In addition, the MBS-Is in [5] (low salt condition (5 mM NaCl)) came out at 128 µg/mL.
